The text below walks through data of US8013112B2, “Compositions comprising human brain natriuretic peptide (BNP) fragments” (Abbott Laboratories, priority 2006, dated 2011).

The format of data set [1] is in vitro ADME, human. The method, then: EDTA plasma of healthy human subjects and human BNP plasma specimens were obtained from ProMedDx LLC (Norton, Mass.), shipped on dry ice, and stored at −70° C. before use.
In this study, human BNP degradation products in human BNP specimens and the impact of temperature on degradation was studied. Prior to sample extractions for analysis, each sample was split into two vials and incubated at room temperature for 0 hours (t=0 hour) and 48 hours (t=48 hours), respectively. The samples were then extracted using the methodology described in Example 4 and analyzed by the API 4000.
Experiments were conducted to determine if human BNP n-32 fragments (where n is an interger b=1, 2, 3, 4, 5, 6) were present in the specimen and to evaluate whether aminopeptidase type protease is involved in human BNP degradation. The samples were prepared and analyzed using the same methodology as described in Example 4, except that samples were monitored for human BNP n-32 fragments (n=1, 2, 3, 4, 5, 6[…]).
Next, to determine if ring cleavage products were present, human BNP fragment 5-32x was then monitored prior to and after incubation at room temperature. The samples were not monitored for other human BNP n-32x fragments since these fragments would be formed by the same process as human BNP 5-32x fragments. Additionally, monitoring for more fragments would reduce the detection sensitivity of the method.
Using both of these approaches, human BNP fragments prior to and after room temperature incubation were monitored for both human BNP n-32 fragments and human BNP n-32x fragments for 20 samples.

Data set [2] is described as follows: Degradation time course of human BNP 1-32 spiked in pooled EDTA plasma of healthy human subjects, LC/MS.
Description: An aliquot of the mixture was taken at various time points with protease inhibitor added and frozen immediately. Samples were extracted along with an internal standard (the internal standard was a biotinylated human BNP mutant. In this mutant, amino acid 32 (histidine) was replaced by alanine and is hereinafter referred to as “Biotin-BNP1-32 (H32A)”) by a monoclonal antibody 106.3 (hereinafter referred to as “mAb 106.3”) coated magnetic microparticles and released human BNP and fragments were analyzed by LC/MS. The relative abundance of each fragments were plotted.
To study human BNP degradation near physiological concentration, an API4000 LC/MS system (Applied Biosystems, Foster City, Calif.) equipped with Agilent 1100 HPLC was used to determine the degradation of human BNP spiked at 5 ng/mL in a pooled normal EDTA plasma. […] The major human BNP degradation products (namely, 1-32, 3-32, 3-30, and 3-30x) and kinetics were analyzed by LC/MS using selected ion monitoring mode according to instrument protocol. […]
The relative concentration of human BNP fragments 3-32, 3-30 and 3-30x were monitored at various time points (0.5, 4, 6, 8, 10, 24 hours). Triply charged human BNP peptides and human BNP fragments, namely, 1-32, 3-32, 3-30, and 3-30x were monitored at m/z 1155.6, 1094.6.
The format of data set [3] is in vitro ADME, human. As for the experimental part: Human BNP was spiked into Human BNP specimens (EDTA plasma) using the same procedure as in Example 2, and the spiked samples were studied using the same methodology as in Example 4. […] However, the cleavage rates appeared to be slower in the heart-failure patient samples: after 8 hours incubation at the room temperature, 80% of the degradation products still contain the C-terminus (human BNP fragment 3-32, human BNP 1-32, and human BNP fragments 3-32X and 1-32x). When the same concentration of human BNP was spiked into a pooled EDTA plasma of healthy human subjects, only 5% of the fragments contain intact C-terminus after 4 hours incubation at room temperature (See, Example 5).
The source holds these as a separate data set.

Bridges are numbered along the chain shown (N, C = ends). Roman numbers before positions name the chains, in order. Where no end group is shown, it is not given here.

For the compound “3-30x: Human BNP Fragment Composition: 3-30 with ring cleavage, two fragments (e.g. BNP3-17 and BNP18-30) cross-linked by disulfide bond (chain 1 KMVQGSGCFGRKMDR; chain 2 ISSSSGLGCKVLR; disulfide I:8-II:9 (inferred))”, the “Human BNP fragment Peak high ranking (T = 0 hours)” value in data set [1] amounted to 5.

For the compound “5-30x: Human BNP Fragment Composition 5-30x: ring-cleaved, cross-linked form of fragment 5-30”, the “Human BNP fragment Peak high ranking (T = 0 hours)” value in data set [1] is reported as 4.

“5-32x: ring-cleaved, cross-linked form of human BNP fragment 5-32”: the “major cleavage product after incubation at room temperature” value in data set [1] is “become the major product”.

With `CC[C@H](C)[C@@H]1NC(=O)[C@H](CCCNC(=N)N)NC(=O)[C@H](CC(=O)O)NC(=O)[C@H](CCSC)NC(=O)[C@H](CCCCN)NC(=O)[C@H](CCCNC(=N)N)NC(=O)CNC(=O)[C@H](Cc2ccccc2)NC(=O)[C@@H](NC(=O)CNC(=O)[C@H](CO)NC(=O)CNC(=O)[C@H](CCC(N)=O)NC(=O)[C@@H](NC(=O)[C@H](CCSC)NC(=O)[C@H](CCCCN)NC(=O)[C@@H]2CCCN2C(=O)[C@@H](N)CO)C(C)C)CSSC[C@@H](C(=O)N[C@@H](CCCCN)C(=O)N[C@H](C(=O)N[C@@H](CC(C)C)C(=O)N[C@@H](CCCN=C(N)N)C(=O)N[C@@H](CCCN=C(N)N)C(=O)N[C@@H](Cc2cnc[nH]2)C(=O)O)C(C)C)NC(=O)CNC(=O)[C@H](CC(C)C)NC(=O)CNC(=O)[C@H](CO)NC(=O)[C@H](CO)NC(=O)[C@H](CO)NC(=O)[C@H](CO)NC1=O` [1-32], the “relative concentration over the time course of study” value in data set [2] (human BNP spiked at 5 ng/mL in pooled normal EDTA plasma, room temperature, 0.5-24 hours (FIG. 7)) is given as “decreased drastically”. Moreover, the “fragments that contain intact C-terminus” value in data set [2] (human BNP spiked in pooled EDTA plasma of healthy human subjects, after 4 hours incubation at room temperature) came to 5%. Further, in data set [1], the “Human BNP fragment Peak high ranking (T = 0 hours)” value was determined as 3. The “degradation products that still contain the C-terminus” value in data set [3] was 80%.
